From patent publication US20230295106A1 (priority 2019, published 2023)
Read-outs that look alike come from different tables or passages of the source.

What was measured:
rat cortical neurons = assay: Neurite outgrowth in primary neuronal cultures assay; assay type: cell-based; set-up: key: A: Statistically significant mean increase as a percent of DMSO control at 10 μM or less; B: No statistically significant mean increase as a percent of DMSO control at 10 μM or less; conditions: 72 h, vs DMSO control, at 10 μM or less
Excerpt: Neurite Outgrowth in Primary Neuronal Cultures Assay. Changes in the pattern of neurite outgrowth have been implicated in psychiatric and neurodegenerative disorders as well as traumatic injuries. The discovery of new compounds that can positively affect neuritogenesis are important for developing new therapeutics for neurological diseases. Measurement of neurite outgrowth of rat cortical neurons using an automated image-based assay was used to determine the neuroplastic effects of the compounds of the present invention. The neurite outgrowth assay was performed at Neurofit SAS (France) as described below.
Pregnant Wistar rats (Janvier; France) were used for the study. They were delivered 6 days before their use. Upon arrival at Neurofit animal facility, they were housed one per cage and maintained in a room with controlled temperature (21-22° C.) and a reversed light-dark cycle (12 h/12 h; lights on: 17:30-05:30; lights off: 05:30-17:30) with food and water available ad libitum.
Female Wistar rats of 17 days gestation were killed by cervical dislocation and the fetuses were removed from the uterus. Their brains were placed in ice-cold medium of Leibovitz (L15, Gibco, Fisher bioblock, France). Cortices were dissected and meninges were carefully removed. The cortical neurons were dissociated by trypsinization for 30 min at 37° C. (trypsin-EDTA, Gibco) in presence of 0.1 mg/ml DNAse I (Roche, France). The reaction was stopped by addition of Dulbecco's Modified Eagle Medium (DMEM; Gibco) with 10% of fetal bovine serum (FBS; Gibco). The suspension was triturated with a 10-ml pipette and using a needle syringe 21 G and centrifuged at 350×g for 10 min at room temperature. The pellet of dissociated cells was resuspended in a medium consisting of Neurobasal (Gibco) supplemented with 2% B27 supplement (Gibco), 0.5 mM L-Glutamine (Gibco), an antibiotic-antimicotic mixture. Viable cells were counted in a Neubauer cytometer using the trypan blue exclusion test (Sigma). Cells were seeded at a density of 10000 cells per well in 96-well plate (Costar) precoated with poly-L-lysine. Test compound at different concentrations were added to the cultures. Donepezil (positive control) was tested at 250 nM.
After 72 h (3 days) of plating, cultures were fixed with paraformaldehyde in PBS (4%, Sigma) for 30 min at 4° C. Then, cells were successively permeabilized with 0.1% Triton X100 for 30 min, saturated with PBS containing 3% of BSA and were incubated 1 h with anti-beta III tubulin antibody (Sigma) at 1/10000 in PBS containing 0.5% of BSA. Cells were washed three times with PBS containing 0.5% of BSA, and they were incubated 1 h with goat anti-mouse antibody coupled with AF488 (Invitrogen A11001) diluted at 1/1000 in PBS containing 0.5% of BSA. Finally, nuclei were staining with DAPI 1 mg/ml at 1/1000 in PBS containing 0.5% of BSA. After rinsing with PBS, the plate was filmed and neurite networks were examined and analyzed using High-Content Screening (CellInsight, Thermo Scientific). The average number of neurites per neuron and the average total length of neurites per neuron were the main parameters analyzed. Analysis of data was performed using analysis of variance (ANOVA). The Fisher's Protected Least Significant Difference test was used for multiple comparisons. A p value <0.05 was considered significant. The software used is StatView 5.0 from SAS Institut.

5-HT2A [1] = target: T1, 5-HT2A (Homo sapiens, UniProt P28223); assay: Serotonin 5-HT2A in vitro radioligand binding competition assay ([3H]-DOI); set-up: Epics Therapeutics S.A. (Belgium) FAST-0505B; host or cells: membrane extracts
T1 sequence (P28223 whole entry): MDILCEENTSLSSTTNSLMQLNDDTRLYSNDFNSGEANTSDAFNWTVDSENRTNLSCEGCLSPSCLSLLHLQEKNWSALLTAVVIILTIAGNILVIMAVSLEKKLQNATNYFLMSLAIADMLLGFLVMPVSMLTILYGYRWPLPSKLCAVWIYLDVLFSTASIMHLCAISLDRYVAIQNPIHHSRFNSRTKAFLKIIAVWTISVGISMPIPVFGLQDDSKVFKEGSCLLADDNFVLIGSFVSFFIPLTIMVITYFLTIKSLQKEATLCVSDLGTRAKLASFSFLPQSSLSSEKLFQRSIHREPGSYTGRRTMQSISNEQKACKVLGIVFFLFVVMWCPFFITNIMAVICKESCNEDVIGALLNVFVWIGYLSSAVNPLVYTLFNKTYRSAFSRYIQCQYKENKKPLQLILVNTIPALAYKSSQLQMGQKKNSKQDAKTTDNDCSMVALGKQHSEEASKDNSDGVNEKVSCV

5-HT2A [2] = target: T1, 5-HT2A; assay: Serotonin 5-HT2A in vitro cellular IPOne agonism assay (HTRF); assay type: cell-based; set-up: host or cells: CHO-K1
[3] = 5-HT2A Radioligand Binding Activity, competition with [3H]-DOI, membrane extracts
[4] = 5-HT2A IPOne Agonism Activity, CHO-K1 cells, 60 min at 37° C.

SMILES	Increase in Neurite Length (rat cortical neurons)	Increase in Neurite Number (rat cortical neurons)	IC50 (5-HT2A [1]; read-out: 5-HT2A Radioligand Binding Activity, competition with [3H]-DOI, membrane extracts) [µM]	EC50 (5-HT2A [2]; read-out: 5-HT2A IPOne Agonism Activity, CHO-K1 cells, 60 min at 37° C.) [µM]	IC50 (5-HT2A [1]; [3]) [µM]	EC50 (5-HT2A [2]; [4]) [µM]	IC50 (5-HT2A [1]) [µM]	EC50 (5-HT2A [2]) [µM]
CN(C)C1Cc2cccc3ccn(c23)C1 (single isomer, unassigned) [Compound 15, N,N-dimethyl-5,6-dihydro-4H-pyrrolo[3,2,1-ij]quinolin-5-amine]	B	B	0.101 to 1	> 10				
CCN(CC)C(=O)[C@@H]1C=C(c2cccc(OC)c2)CN(C)C1 (single isomer, unassigned) [Compound 10, N,N-diethyl-5-(3-methoxyphenyl)-1-methyl-1,2,3,6-tetrahydropyridine-3-carboxamide]	A	A			0.101 to 1	0.101 to 1		
CCN(CC)C(=O)[C@@H]1C=C(c2cc(OC)cc(OC)c2)CN(C)C1 (single isomer, unassigned) [Compound 5, 5-(3,5-dimethoxyphenyl)-N,N-diethyl-1-methyl-1,2,3,6-tetrahydropyridine-3-carboxamide]	A	A			0.101 to 1	0.01 to 0.1		
COc1cc2c3c(ccn3CC(N)C2)c1 (stereo not shown) [Compound 25, 8-methoxy-5,6-dihydro-4H-pyrrolo[3,2,1-ij]quinolin-5-amine]							> 10	> 10
CCN(CC)C(=O)[C@@H]1C=C(c2ccccc2OC)CN(C)C1 (single isomer, unassigned) [Compound 7, N,N-diethyl-5-(2-methoxyphenyl)-1-methyl-1,2,3,6-tetrahydropyridine-3-carboxamide]	B	B			0.01 to 0.1	0.01 to 0.1		
CCN(CC)C1Cc2cccc3ccn(c23)C1 (stereo not shown) [Compound 16, N,N-diethyl-5,6-dihydro-4H-pyrrolo[3,2,1-]quinolin-5-amine]	A	A					0.101 to 1	0.101 to 1
NC1Cc2c(Cl)ccc3ccn(c23)C1 (stereo not shown) [Compound 23, 7-chloro-5,6-dihydro-4H-pyrrolo[3,2,1-ij]quinolin-5-amine]							1 to 10	1 to 10
NC1Cc2cccc3ccn(c23)C1 (stereo not shown) [Compound 13, 5,6-dihydro-4H-pyrrolo[3,2,1-ij]quinolin-5-amine]	A	A					1 to 10	> 10
CCN(CC)C(=O)[C@@H]1C=C(c2cccc3[nH]ccc23)CN(C)C1 (single isomer, unassigned) [Compound 11, N,N-diethyl-5-(1H-indol-4-yl)-1-methyl-1,2,3,6-tetrahydropyridine-3-carboxamide]	A	A						
CCN(CC)C(=O)[C@@H]1C=C(c2cc(OC)cc(OC)c2)CN(C)C1 (single isomer, unassigned) [Compound 6, 5-(3,5-dimethoxyphenyl)-N,N-diethyl-1-methyl-1,2,3,6-tetrahydropyridine-3-carboxamide]	A	A			1 to 10	0.101 to 1		
CCN(CC)C(=O)[C@@H]1C=C(c2ccccc2OC)CN(C)C1 (single isomer, unassigned) [Compound 8, N,N-diethyl-5-(2-methoxyphenyl)-1-methyl-1,2,3,6-tetrahydropyridine-3-carboxamide]	A	A			0.101 to 1	0.101 to 1		
CCN(CC)C(=O)[C@@H]1C=C(c2cccc(OC)c2)CN(C)C1 (single isomer, unassigned) [Compound 9, N,N-diethyl-5-(3-methoxyphenyl)-1-methyl-1,2,3,6-tetrahydropyridine-3-carboxamide]	A	A			0.01 to 0.1	0.01 to 0.1		
CN(C)C1Cc2cccc3ccn(c23)C1 (single isomer, unassigned) [Compound 14, N,N-dimethyl-5,6-dihydro-4H-pyrrolo[3,2,1-ij]quinolin-5-amine]	A	A					0.101 to 1	> 10
NC1Cc2c(F)ccc3ccn(c23)C1 (stereo not shown) [Compound 19, 7-fluoro-5,6-dihydro-4H-pyrrolo[3,2,1-ij]quinolin-5-amine]							> 10	> 10
NC1Cc2cc(F)cc3ccn(c23)C1 (stereo not shown) [Compound 17, 8-fluoro-5,6-dihydro-4H-pyrrolo[3,2,1-ij]quinolin-5-amine]							1 to 10	> 10
CCN(CC)C(=O)[C@@H]1C=C(c2cccc3[nH]ccc23)CN(C)C1 (single isomer, unassigned) [Compound 12, N,N-diethyl-5-(1H-indol-4-yl)-1-methyl-1,2,3,6-tetrahydropyridine-3-carboxamide]	A	A						
NC1Cc2cccc3[nH]cc(c23)C1 (stereo not shown) [Compound 27, 1,3,4,5-tetrahydrobenzo[cd]indol-4-amine]	A	A					1 to 10	1 to 10
NC1Cc2cc(Cl)cc3ccn(c23)C1 (stereo not shown) [Compound 21, 8-chloro-5,6-dihydro-4H-pyrrolo[3,2,1-ij]quinolin-5-amine]							1 to 10	1 to 10
